{"source": "patent US8524911B2", "about": "“3-arylamino pyridine derivatives” (Merck Serono SA, priority 2004, dated 2013)", "data": [{"system": "human melanoma A375 cells", "experiment": "Tumor cell proliferation assay (ATP Lite), A375", "type": "cell-based", "conditions": "A-375, 96 h, 4 days", "method": "Assay 2: Tumor Cell Proliferation Assays (ATP Lite)\nMurine colon C26, human melanoma A375 and MeI5 or human pancreatic MiaPaCa-2 cells were plated in 96 well Corning white plates (1500 cells/well for C26, and 2000 cells/well for A375, and MiaPaCa-2) and cultured overnight at 37° C. in 5% CO2. Inhibitors were serially diluted in 100% DMSO and subsequently added to cells to reach a final concentration of 0.25% DMSO. The cells were incubated for 4 days in the presence of test compounds in cell growth media (DMEM with 10% fetal bovine serum, 2 mM glutamine for C26, and MiaPaCa-2, and RPMI with 10% fetal bovine serum, 2 mM glutamine for A375). Cell proliferation was quantitated using the ATP lite cell proliferation kit (Packard). Columns 4-6 show the concentration of compounds required to induce 50% cell death (IC50 in μM) of […]. With “+” meaning 3 μM<IC50≦10 μM and “++” IC50≦3 μM and “n.d.” means not determined. Few compounds were also tested on human melanoma cell MeI5.", "units": {"IC50": "µM"}, "values": [{"compound": "O=C(NC1CCCCC1)c1ccncc1Nc1ccc(I)cc1F", "note": "[Example 61, N-cyclohexyl-3-[(2-fluoro-4-iodophenyl)amino]isonicotinamide]", "IC50": "3 to 10"}, {"compound": "O=C(NCc1cccc(I)c1)c1ccncc1Nc1ccc(I)cc1F", "note": "[Example 94, 3-[(2-fluoro-4-iodophenyl)amino]-N-(3-iodobenzyl)isonicotin-amide]", "IC50": "3 to 10"}, {"compound": "O=C(NO)c1ccncc1Nc1ccc(I)cc1F", "note": "[Example 66, 3-[(2-fluoro-4-iodophenyl)amino]-N-hydroxyisonicotinamide]", "IC50": "≤ 3"}, {"compound": "CC1(C)OC[C@@H](CONC(=O)c2ccncc2Nc2ccc(I)cc2F)O1", "note": "[Example 63, N-{[(4S)-2,2-dimethyl-1,3-dioxolan-4-yl]methoxy}-3-[(2-fluoro-4-iodophenyl)amino]isonicotinamide]", "IC50": "≤ 3"}, {"compound": "C#Cc1ccc(Nc2cnccc2C(=O)NOC[C@H](O)CO)c(Cl)c1", "note": "[Example 54, 3-(2-Chloro-4-ethynyl-phenylamino)-N-(2,3-dihydroxy-propoxy)-isonicotinamide]", "IC50": "3 to 10"}]}, {"target": "human MEK1 (Homo sapiens, UniProt Q02750)", "sequence (Q02750 whole entry)": "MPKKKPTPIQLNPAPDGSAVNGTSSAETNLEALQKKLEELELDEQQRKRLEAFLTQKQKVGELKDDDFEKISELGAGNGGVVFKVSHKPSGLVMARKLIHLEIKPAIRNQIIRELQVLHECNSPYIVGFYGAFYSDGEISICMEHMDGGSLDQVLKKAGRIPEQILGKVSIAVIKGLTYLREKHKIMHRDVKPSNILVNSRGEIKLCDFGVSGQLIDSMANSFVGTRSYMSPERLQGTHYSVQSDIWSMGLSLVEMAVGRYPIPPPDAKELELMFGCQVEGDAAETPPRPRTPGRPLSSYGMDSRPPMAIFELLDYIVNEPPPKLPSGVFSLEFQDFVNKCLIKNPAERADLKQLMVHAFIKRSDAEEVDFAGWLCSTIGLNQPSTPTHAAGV", "experiment": "MEK-1 Enzyme Assay (LANCE-HTRF)", "type": "biochemical", "conditions": "100 nM MEK1, 15 μM ATP, 300 nM ERK2, two hours; read-out: MEK inhibition", "method": "Assay 1: MEK-1 Enzyme Assay (LANCE-HTRF)\nThe activity of the compounds of the present invitation may be determined by the following procedure; Inhibition of human MEK1 kinase activity was monitored with a homogenous, fluorescence based assay. The assay uses time resolved fluorescence resonance energy transfer to probe for phosphorylation of ERK1 by MEK1. The assay is carried out in low volume 96 well microtiterplates. […] After two hours, 5 nM Europium-anti-PY20 (Perkin Elmer) and 50 nM Anti-GST-Allophycocyanin (CisBio) in buffer containing 50 mM EDTA and 0.05% BSA are added and the reaction incubated for one hour in the dark. Time-resolved fluorescence is measured using a LJL-Analyst (Molecular Devices) with an excitation wavelength of 340 nm and an emission wavelength of 665 nm. The final concentration of DMSO is 2%.", "units": {"IC50": "µM"}, "values": [{"compound": "O=C(O)c1ccncc1Nc1ccc(SC(F)(F)F)cc1", "note": "[Example 119, 3-(4-Trifluoromethylsulfanyl-phenylamino)-isonicotinic acid]", "IC50": "1 to 10"}, {"compound": "O=C(NCCCN1CCNCC1)c1ccncc1Nc1ccc(I)cc1F", "note": "[Example 116, 3-(2-Fluoro-4-iodo-phenylamino)-N-(3-piperazin-1-yl-propyl)-isonicotinamide]", "IC50": "< 1"}, {"compound": "COc1ccc(-c2cc(C(=O)O)c(Nc3ccc(I)cc3F)cn2)cc1", "note": "[Example 52, 5-[(2-fluoro-4-iodophenyl)amino]-2-(4-methoxyphenyl)isonicotinic acid]", "IC50": "1 to 10"}, {"compound": "CCOC(CCCNC(=O)c1ccncc1Nc1ccc(I)cc1F)OCC", "note": "[Example 107, N-(4,4-diethoxybutyl)-3-[(2-fluoro-4-iodophenyl)amino]-isonicotinamide]", "IC50": "< 1"}, {"compound": "O=C(NCc1cccc(O)c1)c1ccncc1Nc1ccc(I)cc1F", "note": "[Example 106, 3-[(2-fluoro-4-iodophenyl)amino]-N-(3-hydroxybenzyl)-isonicotinamide]", "IC50": "< 1"}, {"compound": "O=C(NOCc1c(F)c(F)c(F)c(F)c1F)c1ccncc1Nc1ccc(I)cc1F", "note": "[Example 103, 3-[(2-fluoro-4-iodophenyl)amino]-N-[(pentafluorobenzyl)oxy]-isonicotinamide]", "IC50": "< 1"}, {"compound": "O=C(NC1CCCCC1)c1ccncc1Nc1ccc(I)cc1F", "note": "[Example 61, N-cyclohexyl-3-[(2-fluoro-4-iodophenyl)amino]isonicotinamide]", "IC50": "< 1"}, {"compound": "Cc1nccc(C(=O)O)c1Nc1ccc(I)cc1F", "note": "[Example 95, 3-(2-Fluoro-4-iodo-phenylamino)-2-methyl-isonicotinic acid]", "IC50": "< 1"}, {"compound": "O=C(O)c1ccncc1Nc1ccc(Cl)cc1Cl", "note": "[Example 1, 3-[(2,4-Dichlorophenyl)amino]isonicotinic acid]", "IC50": "< 1"}, {"compound": "Cc1cc(Br)ccc1Nc1cnccc1C(=O)O", "note": "[Example 2, 3-[(4-Bromo-2-methylphenyl)amino]isonicotinic acid]", "IC50": "< 1"}, {"compound": "CN(CCO)C(=O)c1ccncc1Nc1ccc(I)cc1F", "note": "[Example 37]", "IC50": "< 1"}, {"compound": "CN(C)c1ccc(-c2cc(C(=O)O)c(Nc3ccc(I)cc3F)cn2)cc1", "note": "[Example 57, 2-[4-(dimethylamino)phenyl]-5-[(2-fluoro-4-iodophenyl)amino]-isonicotinic acid]", "IC50": "1 to 10"}, {"compound": "O=C(NCC(F)(F)F)c1ccncc1Nc1ccc(I)cc1F", "note": "[Example 109, 3-(2-Fluoro-4-iodo-phenylamino)-N-(2,2,2-trifluoro-ethyl)-isonicotinamide]", "IC50": "< 1"}, {"compound": "O=C(NCc1cccc(I)c1)c1ccncc1Nc1ccc(I)cc1F", "note": "[Example 94, 3-[(2-fluoro-4-iodophenyl)amino]-N-(3-iodobenzyl)isonicotin-amide]", "IC50": "< 1"}, {"compound": "O=C(NO)c1ccncc1Nc1ccc(I)cc1F", "note": "[Example 66, 3-[(2-fluoro-4-iodophenyl)amino]-N-hydroxyisonicotinamide]", "IC50": "< 1"}, {"compound": "O=C(NCc1cc(F)cc(C(F)(F)F)c1)c1ccncc1Nc1ccc(I)cc1F", "note": "[Example 105, 3-[(2-fluoro-4-iodophenyl)amino]-N-[3-fluoro-5-(trifluoromethyl)-benzyl]isonicotinamide]", "IC50": "< 1"}, {"compound": "NC(=O)[C@H](CO)NC(=O)c1ccncc1Nc1ccc(I)cc1F", "note": "[Example 112, N-(1-(S)-Carbamoyl-2-hydroxy-ethyl)-3-(2-fluoro-4-iodo-phenylamino)-isonicotinamide]", "IC50": "< 1"}, {"compound": "CC1(C)OC[C@@H](CONC(=O)c2ccncc2Nc2ccc(I)cc2F)O1", "note": "[Example 63, N-{[(4S)-2,2-dimethyl-1,3-dioxolan-4-yl]methoxy}-3-[(2-fluoro-4-iodophenyl)amino]isonicotinamide]", "IC50": "< 1"}, {"compound": "COc1ccc(Nc2cnccc2C(=O)O)cc1", "note": "[Example 118, 3-(4-Methoxy-phenylamino)-isonicotinic acid]", "IC50": "1 to 10"}, {"compound": "CCONC(=O)c1ccncc1Nc1ccc(Br)cc1F", "note": "[Example 121, 3-[(4-Bromo-2-fluorophenyl)amino]-N-ethoxyisonicotinamide]", "IC50": "< 1"}, {"compound": "COc1cccc(NC(=O)c2ccncc2Nc2ccc(I)cc2F)c1", "note": "[Example 104, 3-[(2-fluoro-4-iodophenyl)amino]-N-(3-methoxyphenyl)-isonicotinamide]", "IC50": "< 1"}, {"compound": "C#Cc1ccc(Nc2cnccc2C(=O)NOC[C@H](O)CO)c(Cl)c1", "note": "[Example 54, 3-(2-Chloro-4-ethynyl-phenylamino)-N-(2,3-dihydroxy-propoxy)-isonicotinamide]", "IC50": "1 to 10"}, {"compound": "O=C(O)c1ccncc1Nc1ccc(I)cc1", "note": "[Example 73, 3-(4-iodo-phenylamino)-isonicotinic acid]", "IC50": "< 1"}, {"compound": "CC1(C)OC[C@H](CONC(=O)c2ccnc(Cl)c2Nc2ccc(I)cc2F)O1", "note": "[Example 38, 2-Chloro-N-{[(4R)-2,2-dimethyl-1,3-dioxolan-4-yl]methoxy}-3-(2-fluoro-4-iodo-phenylamino)-isonicotinamide]", "IC50": "1 to 10"}, {"compound": "O=C(NCc1ccc(F)cc1)c1ccncc1Nc1ccc(I)cc1F", "note": "[Example 108, N-(4-Fluoro-benzyl)-3-(2-fluoro-4-iodo-phenylamino)-iso-nicotinamide]", "IC50": "< 1"}, {"compound": "O=C(NC1(CO)CCCC1)c1ccncc1Nc1ccc(I)cc1F", "note": "[Example 110, 3-(2-Fluoro-4-iodo-phenylamino)-N-(1-hydroxymethyl-cyclo-pentyl)-isonicotinamide]", "IC50": "< 1"}, {"compound": "Cc1cc(C(=O)O)c(Nc2ccc(I)cc2F)cn1", "note": "[Example 111, 5-[(2-fluoro-4-iodophenyl)amino]-2-methylisonicotinic acid]", "IC50": "< 1"}, {"compound": "Cc1cc(I)ccc1Nc1cnccc1C(=O)O", "note": "[Example 3, 3-[(4-Iodo-2-methylphenyl)amino]isonicotinic acid]", "IC50": "< 1"}, {"compound": "CCONC(=O)c1cc[n+]([O-])cc1Nc1ccc(Br)cc1C", "note": "[Example 6, 3-[(4-Bromo-2-methylphenyl)amino]-N-ethoxyisonicotinamide 1-oxide]", "IC50": "1 to 10"}, {"compound": "O=C(O)c1ccnc(Cl)c1Nc1ccc(Br)cc1F", "note": "[Example 125, 3-(4-Bromo-2-fluoro-phenylamino)-2-chloro-isonicotinic acid]", "IC50": "< 1"}, {"compound": "CCC(CO)(CO)NC(=O)c1ccncc1Nc1ccc(I)cc1F", "note": "[Example 114, N-(1,1-Bis-hydroxymethyl-propyl)-3-(2-fluoro-4-iodo-phenyl-amino)-isonicotin-amide]", "IC50": "< 1"}, {"compound": "O=C(NC1CCc2ccccc21)c1ccncc1Nc1ccc(I)cc1F", "note": "(stereo not shown) [Example 59, N-(2,3-dihydro-1H-inden-1-yl)-3-[(2-fluoro-4-iodophenyl)amino]-isonicotinamide]", "IC50": "1 to 10"}, {"compound": "O=c1[nH]nc(-c2ccncc2Nc2ccc(Br)cc2F)o1", "note": "[Example 126, 5-[3-(4-Bromo-2-fluoro-phenylamino)-pyridin-4-yl]-3H-[1,3,4]oxadiazol-2-one]", "IC50": "1 to 10"}, {"compound": "O=C(N[C@H]1CCCC[C@@H]1O)c1ccncc1Nc1ccc(I)cc1F", "note": "(relative stereo) [Example 113, 3-(2-Fluoro-4-iodo-phenylamino)-N-(trans-2-hydroxy-cyclohexyl)-isonicotinamide]", "IC50": "< 1"}, {"compound": "CC1(C)OC[C@H](CONC(=O)c2cc[n+]([O-])cc2Nc2ccc(I)cc2F)O1", "note": "[Example 89, N-(2,2-Dimethyl-[1,3]dioxolan-4-ylmethoxy)-3-(2-fluoro-4-iodo-phenylamino)-1-oxy-isonicotinamide]", "IC50": "1 to 10"}]}]}
